Measured values taken from the supplement of paper PMC10307832.

Tests used:
Experiment in all cases: relative viability (nuclei count vs DMSO), 5 days (fraction); higher = more cells survive
KIN001-266 + Trametinib = compound: CCN1CCC(CC1)N2C=C(N=N2)CNC3=CC4=C(C(=CN=C4C(=C3)Cl)C#N)NC5=CC(=C(C=C5)F)Cl [KIN001-266] + CC(=O)Nc1cccc(-n2c(=O)n(C3CC3)c(=O)c3c(Nc4ccc(I)cc4F)n(C)c(=O)c(C)c32)c1 [Trametinib] (partner 0.02 µM)
Summary of the method: (§1)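 One day after seeding in 1536-well plates, lung cancer cell lines were dosed by pin tool. Dosing was either single-drug or a fixed anchor-drug dose plus five library-drug doses (not always all listed) in √10 steps. After 5 days, nuclei were stained in one fix-and-stain step and counted on 4× images, and relative viability is the nuclei count of treated wells over that of vehicle wells, given as the median of duplicate plates.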

KIN001-266 + OSI-027 = compound: CCN1CCC(CC1)N2C=C(N=N2)CNC3=CC4=C(C(=CN=C4C(=C3)Cl)C#N)NC5=CC(=C(C=C5)F)Cl [KIN001-266] + COc1cccc2cc(-c3nc([C@H]4CC[C@H](C(=O)O)CC4)n4ncnc(N)c34)[nH]c12 [OSI-027] (partner 0.5 µM)
Summary of the method: as §1

KIN001-266 + Crizotinib = compound: CCN1CCC(CC1)N2C=C(N=N2)CNC3=CC4=C(C(=CN=C4C(=C3)Cl)C#N)NC5=CC(=C(C=C5)F)Cl [KIN001-266] + C[C@@H](Oc1cc(-c2cnn(C3CCNCC3)c2)cnc1N)c1c(Cl)ccc(F)c1Cl [Crizotinib] (partner 1 µM)
Summary of the method: as §1

KIN001-266 + Phenformin = compound: CCN1CCC(CC1)N2C=C(N=N2)CNC3=CC4=C(C(=CN=C4C(=C3)Cl)C#N)NC5=CC(=C(C=C5)F)Cl [KIN001-266] + N=C(N)NC(=N)NCCc1ccccc1 [Phenformin] (partner 250 µM)
Summary of the method: as §1

| Cell Line | relative viability (KIN001-266 + Trametinib; first compound 0.08 µM) | relative viability (KIN001-266 + Trametinib; first compound 0.253 µM) | relative viability (KIN001-266 + Trametinib; first compound 0.8 µM) | relative viability (KIN001-266 + Trametinib; first compound 2.53 µM) | relative viability (KIN001-266 + Trametinib; first compound 8 µM) | relative viability (KIN001-266 + OSI-027; first compound 0.08 µM) | relative viability (KIN001-266 + OSI-027; first compound 0.253 µM) | relative viability (KIN001-266 + OSI-027; first compound 0.8 µM) | relative viability (KIN001-266 + OSI-027; first compound 2.53 µM) | relative viability (KIN001-266 + OSI-027; first compound 8 µM) | relative viability (KIN001-266 + Crizotinib; first compound 0.08 µM) | relative viability (KIN001-266 + Crizotinib; first compound 0.253 µM) | relative viability (KIN001-266 + Crizotinib; first compound 0.8 µM) | relative viability (KIN001-266 + Crizotinib; first compound 2.53 µM) | relative viability (KIN001-266 + Crizotinib; first compound 8 µM) | relative viability (KIN001-266 + Phenformin; first compound 0.08 µM) | relative viability (KIN001-266 + Phenformin; first compound 0.253 µM) | relative viability (KIN001-266 + Phenformin; first compound 0.8 µM) | relative viability (KIN001-266 + Phenformin; first compound 2.53 µM) | relative viability (KIN001-266 + Phenformin; first compound 8 µM) |
| --- | --- | --- | --- | --- | --- | --- | --- | --- | --- | --- | --- | --- | --- | --- | --- | --- | --- | --- | --- | --- |
| NCI-H23 | 0.435 | 0.419 | 0.484 | 0.356 | 0.377 | 0.651 | 0.618 | 0.541 | 0.398 | 0.485 | 0.583 | 0.523 | 0.41 | 0.496 | 0.448 | 0.826 | 0.715 | 0.772 | 0.722 | 0.73 |
| NCI-H322M | 0.487 | 0.515 | 0.5 | 0.479 | 0.497 | 0.56 | 0.598 | 0.593 | 0.458 | 0.579 | 0.796 | 0.968 | 0.957 | 0.819 | 0.843 | 0.841 | 0.835 | 0.822 | 0.743 | 0.747 |
| NCI-H358 | 0.174 | 0.17 | 0.138 | 0.115 | 0.117 | 0.79 | 0.72 | 0.997 | 0.903 | 0.596 | 0.537 | 0.794 | 0.656 | 0.454 | 0.268 | 0.361 | 0.367 | 0.343 | 0.277 | 0.251 |
| NCI-H441 | 0.455 | 0.525 | 0.489 | 0.471 | 0.399 | 0.829 | 0.695 | 0.585 | 0.563 | 0.479 | 0.86 | 0.874 | 0.756 | 0.775 | 0.665 | 0.937 | 0.837 | 0.806 | 0.805 | 0.641 |
| NCI-H460 | 0.204 | 0.225 | 0.121 | 0.135 | 0.108 | 0.623 | 0.667 | 0.781 | 0.605 | 0.574 | 1.01 | 0.872 | 1.12 | 0.808 | 0.67 | 0.499 | 0.506 | 0.528 | 0.475 | 0.433 |
| NCI-H520 | 0.727 | 0.628 | 0.561 | 0.624 | 0.645 | 0.232 | 0.351 | 0.278 | 0.235 | 0.297 | 0.719 | 0.675 | 0.809 | 0.742 | 0.747 | 0.793 | 0.633 | 0.706 | 0.376 | 0.58 |
| NCI-H596 | 0.742 | 0.698 | 0.851 | 0.778 | 0.673 | 0.858 | 0.635 | 0.616 | 0.638 | 0.529 | 0.989 | 1.21 | 0.895 | 1.08 | 0.925 | 0.718 | 0.805 | 0.686 | 0.721 | 0.677 |
| NCI-H647 | 0.452 | 0.443 | 0.474 | 0.419 | 0.375 | 0.669 | 0.691 | 0.577 | 0.857 | 0.544 | 1.1 | 1.1 | 1.05 | 1.15 | 0.825 | 0.65 | 0.552 | 0.557 | 0.468 | 0.426 |
| NCI-H650 | 0.982 | 0.974 | 0.942 | 0.944 | 0.979 | 0.62 | 0.591 | 0.563 | 0.493 | 0.55 | 0.703 | 0.752 | 0.741 | 0.797 | 0.71 | 0.499 | 0.503 | 0.495 | 0.463 | 0.507 |
| NCI-H661 | 0.566 | 0.624 | 0.595 | 0.5 | 0.435 | 0.693 | 0.745 | 0.723 | 0.627 | 0.514 | 1.1 | 0.959 | – | – | 0.887 | 0.297 | 0.278 | 0.284 | 0.263 | 0.258 |
| NCI-H727 | 0.431 | 0.384 | 0.391 | 0.391 | 0.402 | 0.646 | 0.573 | 0.593 | 0.541 | 0.527 | 0.79 | 0.812 | 0.753 | 0.825 | 0.405 | 0.612 | 0.615 | 0.509 | 0.595 | 0.364 |
| NCI-H838 | 0.535 | 0.494 | 0.557 | 0.465 | 0.385 | 0.36 | 0.435 | 0.423 | 0.361 | 0.343 | 0.873 | 0.849 | 0.965 | 0.844 | 0.689 | 0.668 | 0.624 | 0.595 | 0.574 | 0.427 |
| NCI-H1355 | 0.445 | 0.473 | 0.48 | 0.406 | 0.394 | 0.476 | 0.426 | 0.4 | 0.373 | 0.397 | 1.12 | 1.04 | 1.09 | 0.966 | 0.939 | 0.454 | 0.419 | 0.441 | 0.414 | 0.373 |
| NCI-H1437 | 0.581 | 0.577 | 0.539 | 0.561 | 0.383 | 0.938 | 0.91 | 0.862 | 0.85 | 0.56 | 0.896 | 0.973 | 0.924 | 0.891 | 0.779 | 0.346 | 0.272 | 0.286 | 0.291 | 0.251 |
| NCI-H1650 | 0.581 | 0.602 | 0.42 | 0.457 | 0.373 | 0.872 | 0.786 | 0.507 | 0.397 | 0.337 | 1.14 | 0.911 | 1.11 | 0.817 | 0.61 | 0.479 | 0.448 | 0.326 | 0.261 | 0.305 |
| NCI-H1651 | 0.847 | 0.833 | 0.772 | 0.771 | 0.854 | 0.709 | 0.787 | 0.743 | 0.753 | 0.636 | 0.935 | 0.872 | 0.876 | 0.853 | 0.823 | 0.355 | 0.383 | 0.316 | 0.508 | 0.325 |
